“Also recorded” adds a separate entry of the source. Where two headings read alike, the source gives them in different places.
How the values were obtained:
Format in all cases: cell-based
[1] = target: T1, Btk phosphorylation in Ramos cells (Homo sapiens, UniProt Q06187); assay: Pulse chase western blotting assay for irreversibility / binding property; conditions: 100 nM for 45 mins, monitored 4, 6 and 8 h post removal
T1 construct: endogenous in cells; host or cells: Ramos cells (ATCC)
Experimental: Ramos cells were treated with Compound I-1 at 100 nM for 45 min. Cells were then re-suspended in compound free media and stimulated with 6 μg/ml IgM at 0, 4, 6 or 8 hours after compound removal. Cells were then lysed after 30 mm IgM stimulation. West blotting analysis were then performed.
Ramos cells were treated with Compounds at 100 nM for 45 min. Cells were then re-suspended in compound free media and stimulated with 6 μg/ml anti-IgM at 0, 4, 6 or 8 hours after compound removal. Cells were then lysed after 30 mm anti-IgM stimulation. Western blotting analysis was then performed.

[2] = target: T2, free Btk protein from Ramos cells (Homo sapiens, UniProt Q06187); assay: Btk target site occupancy ELISA assay; conditions: for IC50: ELISA
T2 construct: endogenous in cells; host or cells: Ramos cells (ATCC)
Experimental: (§1) Ramos cells were treated with Compound I-1 at indicated concentrations for 1 h, followed by stimulation with 6 μg/mL of IgM for 30 mm, and then lysed. Lysates were incubated with Compound I-21 (biotin labeled) at a final concentration of 1 μM in a PBS, 0.05% Tween-20, 1% BSA solution while shaking for 1 h at room temperature. Samples were transferred to a streptavidin-coated 96-well ELISA plate and mixed while shaking for 1 h at room temperature. The Btk antibody (BD 611116, 1:1000 dilution in PBS+0.05% Tween-20+0.5% BSA) was then applied and incubated for 1 h at room temperature. After wash, goat anti-mouse-HRP (Pierce 31432, 1:1000 dilution in PBS+0.05% Tween-20+0.5% BSA) was added and incubated for 1 h at room temperature. The ELISA was developed with addition of tetramethyl benzidine (TMB) followed by Stop Solution and read at OD 450 nm.
as §1, with “Compounds” for “Compound I-1”, “anti-IgM” for “IgM”, “diluted” for “dilution”, “tetramethylbenzidine” for “tetramethyl benzidine”

[3] = target: T3, Btk (Tyr223) phosphorylation in Ramos cells (Homo sapiens, UniProt Q06187); assay: Btk Tyr223 phosphorylation inhibition, western blotting assay (Example 72)
T3 construct: endogenous in cells; host or cells: Ramos cells (ATCC)
Experimental: Ramos cell line was obtained from the American Type Culture Collection and was maintained at 37° C. with 5% CO2, in media supplemented with 10% fetal bovine serum, penicillin (100 units/mL) and streptomycin (100 μg/mL), Goat F(ab′)2 Anti-Human IgM-UNLB was obtained from SouthernBiotech.
Ramos cells were treated with compounds at indicated doses for 45 min at room temperature, followed by stimulation of 12 μg/mL of IgM for 30 min, and then lysed. Western blots were performed on the cell lysate using Phospho-Btk (Tyr223), Phospho-Btk (Tyr551), Btk, Phospho-PLCγ2 (Tyr1217), PLCγ2, Phospho-p44/42 MAPK (Erk1/2) (Thr202/Tyr204) and p44/42 MAPK (Erk1/2) antibodies (Cell Signaling Technology). The density of blotting band was acquired using ImageJ software, and the IC50 of Btk (Tyr223) phosphorylation was fitted using a non-linear regression model by GraphPad Prism version 4.0.

T1 sequence (Q06187 whole entry): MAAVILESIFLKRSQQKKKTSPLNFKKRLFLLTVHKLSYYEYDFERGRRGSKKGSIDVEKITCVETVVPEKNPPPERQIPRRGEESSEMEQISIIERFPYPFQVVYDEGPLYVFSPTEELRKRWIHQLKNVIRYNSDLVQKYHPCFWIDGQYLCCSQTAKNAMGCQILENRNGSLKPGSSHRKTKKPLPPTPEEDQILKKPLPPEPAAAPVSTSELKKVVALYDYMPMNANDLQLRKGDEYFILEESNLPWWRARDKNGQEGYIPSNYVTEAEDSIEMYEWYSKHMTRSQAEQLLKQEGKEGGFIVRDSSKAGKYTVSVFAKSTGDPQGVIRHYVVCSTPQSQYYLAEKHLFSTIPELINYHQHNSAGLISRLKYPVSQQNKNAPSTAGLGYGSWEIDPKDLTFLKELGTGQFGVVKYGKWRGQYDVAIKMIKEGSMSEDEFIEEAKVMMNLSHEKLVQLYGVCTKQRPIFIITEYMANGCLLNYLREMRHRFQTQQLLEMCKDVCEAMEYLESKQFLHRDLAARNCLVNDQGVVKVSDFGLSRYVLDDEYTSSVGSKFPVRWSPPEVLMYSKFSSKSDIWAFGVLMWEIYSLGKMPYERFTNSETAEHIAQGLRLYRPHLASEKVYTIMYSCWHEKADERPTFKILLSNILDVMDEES
T3 sequence (Q06187 whole entry): as above
T2 sequence (Q06187 whole entry): as above

IC50 ([2]; 1 h, read-out: Btk Occupancy Assay (IC50)): ≤ 10 nM
OD 450 (average) ([2]; Compound I-1 0.2 nM): 0.1686
free Btk ([2]; Compound I-1 0.2 nM): 2414 pg
OD 450 (average) ([2]; Compound I-1 0.7 nM): 0.1811
free Btk ([2]; Compound I-1 0.7 nM): 2592 pg
OD 450 (average) ([2]; Compound I-1 3 nM): 0.1219
free Btk ([2]; Compound I-1 3 nM): 1747 pg
OD 450 (average) ([2]; Compound I-1 12 nM): −0.0161
free Btk ([2]; Compound I-1 12 nM): -224 pg
OD 450 (average) ([2]; Compound I-1 47 nM): 0.0114
free Btk ([2]; Compound I-1 47 nM): 168 pg
OD 450 (average) ([2]; Compound I-1 188 nM): −0.0207
free Btk ([2]; Compound I-1 188 nM): -290 pg
OD 450 (average) ([2]; Compound I-1 750 nM): −0.0456
free Btk ([2]; Compound I-1 750 nM): -646 pg
OD 450 (average) ([2]; Compound I-1 3000 nM): −0.0487
free Btk ([2]; Compound I-1 3000 nM): -689 pg
IC50 ([2]; read-out: BTK target site occupancy IC50): 0.5 nM
IC50 ([3]; Btk Tyr223 phosphorylation, 45 min, 12 μg/mL IgM, read-out: BTK Inhibition): < 10 nM
IC50 ([3]; treated 45 mins, read-out: inhibition IC50 of the phosphorylation of BTK protein): 1.1 nM
Structure (SMILES): C=CC(=O)Nc1cccc(Oc2nc(Nc3ccc(N4CCN(C)CC4)cc3)ncc2OC)c1 [Compound I-1, N-(3-(5-methoxy-2-(4-(4-methylpiperazin-1-yl)phenylamino)pyrimidin-4-yloxy)phenyl)acrylamide]
inhibition of BTK phosphorylation after compound removal (irreversibility) [1]: remains inhibited up to 8 his; also recorded: long term effect of the inhibition was observed after compounds removal up to 8 hours; also recorded: remains inhibited up to 8 hrs; also recorded: irreversibly inhibited the BTK phosphorylation; also recorded: inhibited the Btk phosphorylation in Ramos cells after 8 hours of removal
occupancy of the Btk proteins ([2]; increasing concentrations): dose-dependent occupancy of the BTK proteins correlates with its inhibitory activity of BTK kinase
reduction of the Btk Tyr223 phosphorylation in Ramos cells ([3]; western blot): reduction of the Btk Tyr223 phosphorylation; also recorded: dose-dependent inhibition of the BTK phosphorylation

Source: patent publication US9920074B2 (ACEA BIOSCIENCES INC., priority 2013, dated 2018)
